Data from ChEMBL document CHEMBL1144945, “Development of progesterone receptor antagonists from 1,2-dihydrochromeno[3,4-f]quinoline agonist pharmacophore” (Bioorg Med Chem Lett, 2003).
Values belong to the compound of their own block, whether it stands above or below them. Calls of active or inactive are those of the source.

Assays:
Progesterone receptor [1] = target: T1, Progesterone receptor (Homo sapiens, UniProt P06401)
T1 sequence (P06401 whole entry): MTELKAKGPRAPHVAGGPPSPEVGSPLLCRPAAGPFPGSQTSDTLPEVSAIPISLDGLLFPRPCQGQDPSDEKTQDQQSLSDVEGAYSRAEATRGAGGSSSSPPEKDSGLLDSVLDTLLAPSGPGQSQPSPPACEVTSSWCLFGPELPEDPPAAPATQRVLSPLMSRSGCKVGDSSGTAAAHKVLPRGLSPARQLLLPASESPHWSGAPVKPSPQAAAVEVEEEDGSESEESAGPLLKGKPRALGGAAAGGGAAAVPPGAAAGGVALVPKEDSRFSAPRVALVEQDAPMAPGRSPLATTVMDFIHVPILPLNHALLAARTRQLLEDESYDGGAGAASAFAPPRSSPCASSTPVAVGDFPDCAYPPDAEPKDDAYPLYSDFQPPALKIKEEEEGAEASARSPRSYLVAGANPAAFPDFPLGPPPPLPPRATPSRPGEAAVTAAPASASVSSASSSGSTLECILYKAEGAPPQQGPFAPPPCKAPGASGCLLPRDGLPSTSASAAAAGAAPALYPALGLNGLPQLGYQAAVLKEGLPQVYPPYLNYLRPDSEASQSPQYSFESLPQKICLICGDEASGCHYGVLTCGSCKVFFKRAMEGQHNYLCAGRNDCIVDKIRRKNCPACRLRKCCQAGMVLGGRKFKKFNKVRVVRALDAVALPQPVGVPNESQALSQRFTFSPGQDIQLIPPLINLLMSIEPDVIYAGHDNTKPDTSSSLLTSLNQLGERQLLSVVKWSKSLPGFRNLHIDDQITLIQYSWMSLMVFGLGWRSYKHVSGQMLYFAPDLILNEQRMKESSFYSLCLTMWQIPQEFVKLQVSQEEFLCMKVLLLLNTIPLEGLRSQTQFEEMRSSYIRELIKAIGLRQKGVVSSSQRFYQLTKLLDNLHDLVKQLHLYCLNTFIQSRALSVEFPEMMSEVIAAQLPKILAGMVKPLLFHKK
Description: Antagonistic activity at human progesterone receptor in CV-1 cells.

Progesterone receptor [2] = target: T1, Progesterone receptor; assay: Binding towards human progesterone receptor; Not tested
Progesterone receptor [3] = target: T1, Progesterone receptor; remark: listed apart in the source
Description: Inhibition of human progesterone receptor activation in T47D human breast cancer cell.

Glucocorticoid receptor [4] = target: T2, Glucocorticoid receptor (Homo sapiens, UniProt P04150); assay: Inhibition of antagonist activity towards glucocorticoid receptor; type: functional
T2 sequence (P04150 whole entry): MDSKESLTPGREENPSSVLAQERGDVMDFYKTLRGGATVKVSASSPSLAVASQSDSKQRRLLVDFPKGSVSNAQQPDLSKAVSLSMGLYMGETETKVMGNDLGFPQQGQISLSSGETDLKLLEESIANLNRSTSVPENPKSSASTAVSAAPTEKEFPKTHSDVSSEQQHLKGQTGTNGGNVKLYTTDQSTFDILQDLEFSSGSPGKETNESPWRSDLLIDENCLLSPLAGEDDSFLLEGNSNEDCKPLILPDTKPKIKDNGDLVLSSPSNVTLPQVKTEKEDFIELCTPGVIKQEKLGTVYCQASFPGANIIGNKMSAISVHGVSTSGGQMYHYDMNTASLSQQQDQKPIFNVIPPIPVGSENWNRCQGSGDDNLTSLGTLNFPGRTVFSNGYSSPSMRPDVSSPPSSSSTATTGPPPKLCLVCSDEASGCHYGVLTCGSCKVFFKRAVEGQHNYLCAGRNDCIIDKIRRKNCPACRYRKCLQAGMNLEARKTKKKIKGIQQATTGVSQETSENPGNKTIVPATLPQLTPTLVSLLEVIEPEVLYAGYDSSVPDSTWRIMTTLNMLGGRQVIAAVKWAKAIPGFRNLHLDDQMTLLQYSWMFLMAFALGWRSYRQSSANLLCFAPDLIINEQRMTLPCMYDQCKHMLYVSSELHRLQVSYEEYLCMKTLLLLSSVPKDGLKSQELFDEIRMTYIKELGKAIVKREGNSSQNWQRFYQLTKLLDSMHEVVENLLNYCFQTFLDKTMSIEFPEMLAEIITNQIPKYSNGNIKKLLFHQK

Androgen receptor = target: T3, Androgen receptor (Homo sapiens, UniProt P10275)
T3 sequence (P10275 whole entry): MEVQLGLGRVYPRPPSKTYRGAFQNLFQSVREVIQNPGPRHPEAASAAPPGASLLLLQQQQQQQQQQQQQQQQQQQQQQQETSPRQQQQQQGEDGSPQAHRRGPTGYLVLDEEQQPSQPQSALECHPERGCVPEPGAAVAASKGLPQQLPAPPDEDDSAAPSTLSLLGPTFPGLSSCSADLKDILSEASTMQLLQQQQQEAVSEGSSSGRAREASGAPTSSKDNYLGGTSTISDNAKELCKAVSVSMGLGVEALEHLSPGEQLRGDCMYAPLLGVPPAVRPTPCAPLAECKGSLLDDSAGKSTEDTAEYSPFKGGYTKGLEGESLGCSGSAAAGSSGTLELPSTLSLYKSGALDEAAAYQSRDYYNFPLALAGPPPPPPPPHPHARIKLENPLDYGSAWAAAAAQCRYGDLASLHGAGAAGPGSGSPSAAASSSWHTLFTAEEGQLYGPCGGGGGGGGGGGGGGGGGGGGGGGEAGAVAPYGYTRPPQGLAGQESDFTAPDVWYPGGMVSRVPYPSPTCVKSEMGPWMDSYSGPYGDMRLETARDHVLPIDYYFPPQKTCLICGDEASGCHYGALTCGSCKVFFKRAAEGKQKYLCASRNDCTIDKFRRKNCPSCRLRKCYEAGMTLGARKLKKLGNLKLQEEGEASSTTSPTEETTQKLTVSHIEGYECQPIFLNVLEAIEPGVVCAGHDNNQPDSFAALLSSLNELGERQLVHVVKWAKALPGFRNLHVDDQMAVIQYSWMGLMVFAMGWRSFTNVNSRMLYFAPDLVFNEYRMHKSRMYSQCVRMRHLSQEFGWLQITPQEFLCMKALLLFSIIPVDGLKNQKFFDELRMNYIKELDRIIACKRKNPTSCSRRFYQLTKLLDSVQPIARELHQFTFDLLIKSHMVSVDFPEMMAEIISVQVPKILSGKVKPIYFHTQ
Description: Inhibition of antagonist activity towards Androgen receptor

Progesterone receptor [5] = target: T1, Progesterone receptor; remark: listed apart in the source
Description: Binding affinity at human progesterone receptor.

Progesterone receptor [6] = target: T1, Progesterone receptor; remark: listed apart in the source
Description: Effective concentration for human progesterone receptor in T47D human breast cancer cell

[7] = target: T4, Mineralocorticoid receptor (Homo sapiens) (UniProt P08235); assay: Antagonist efficacy for mineralocorticoid receptor (hMR); type: functional
T4 sequence (whole entry): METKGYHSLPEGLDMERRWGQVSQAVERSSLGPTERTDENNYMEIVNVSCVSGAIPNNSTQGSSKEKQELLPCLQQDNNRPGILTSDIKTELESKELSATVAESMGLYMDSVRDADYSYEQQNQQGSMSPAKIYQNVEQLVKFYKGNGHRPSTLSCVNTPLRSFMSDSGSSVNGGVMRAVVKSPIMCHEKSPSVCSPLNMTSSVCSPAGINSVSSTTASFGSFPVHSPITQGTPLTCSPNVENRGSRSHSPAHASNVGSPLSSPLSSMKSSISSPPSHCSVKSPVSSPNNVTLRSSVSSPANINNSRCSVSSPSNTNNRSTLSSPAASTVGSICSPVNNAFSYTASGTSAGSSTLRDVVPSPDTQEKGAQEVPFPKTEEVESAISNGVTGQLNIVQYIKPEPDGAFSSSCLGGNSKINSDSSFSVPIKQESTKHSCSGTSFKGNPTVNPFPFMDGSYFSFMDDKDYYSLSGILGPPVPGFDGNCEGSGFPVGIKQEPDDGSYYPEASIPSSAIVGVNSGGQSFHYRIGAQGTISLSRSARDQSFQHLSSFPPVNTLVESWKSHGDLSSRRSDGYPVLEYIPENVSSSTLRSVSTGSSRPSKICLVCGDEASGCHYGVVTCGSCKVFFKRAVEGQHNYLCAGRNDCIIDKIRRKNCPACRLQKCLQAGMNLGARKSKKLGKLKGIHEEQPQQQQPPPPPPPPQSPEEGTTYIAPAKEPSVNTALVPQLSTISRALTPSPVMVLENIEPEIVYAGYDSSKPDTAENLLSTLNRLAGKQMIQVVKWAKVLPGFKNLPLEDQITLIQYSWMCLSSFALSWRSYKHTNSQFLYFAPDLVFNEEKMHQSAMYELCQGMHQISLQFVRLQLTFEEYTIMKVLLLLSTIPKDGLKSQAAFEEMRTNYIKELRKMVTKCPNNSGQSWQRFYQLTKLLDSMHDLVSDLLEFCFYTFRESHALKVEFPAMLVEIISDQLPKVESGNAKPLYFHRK

[8] = target: T5, Estrogen receptor (Homo sapiens) (UniProt Q92731+P03372); assay: Antagonist efficacy for Estrogen receptor; Not active; type: functional
[9] = target: T6, Mineralocorticoid receptor (Homo sapiens, UniProt P08235); assay: Inhibition of antagonist activity towards mineralocorticoid receptor (hMR); type: functional
T6 sequence (P08235 whole entry): T4 sequence (whole entry)

[10] = target: T7, Progesterone receptor (Homo sapiens) (UniProt P06401); assay: Agonist efficacy for human progesterone receptor in T47D human breast cancer cell; not active (<20% efficacy and/or >10 mM potency); type: functional, cell-based
T7 sequence (whole entry): T1 sequence (P06401 whole entry)

[11] = target: T7, Progesterone receptor (Homo sapiens); assay: Effective concentration against human progesterone receptor in T47D human breast cancer cell; not active (<20% efficacy and/or >10 mM potency); type: cell-based; details: Cancer cell lines
Glucocorticoid receptor [12] = target: T2, Glucocorticoid receptor; assay: Inhibition of antagonist activity towards glucocorticoid receptor; not active; type: functional
[13] = target: T8, Glucocorticoid receptor (Homo sapiens) (UniProt P04150); assay: Antagonist efficacy for glucocorticoid receptor; not active; type: functional
T8 sequence (whole entry): T2 sequence (P04150 whole entry)

[14] = target: T6, Mineralocorticoid receptor; assay: Inhibition of antagonist activity towards mineralocorticoid receptor (hMR); Not active; type: functional
[15] = target: T4, Mineralocorticoid receptor (Homo sapiens); assay: Antagonist efficacy for mineralocorticoid receptor (hMR); Not active; type: functional
[16] = target: T5, Estrogen receptor (Homo sapiens); assay: Antagonist efficacy for Estrogen receptor; type: functional

- EC50 (Progesterone receptor [1]): 576 nM
- Ki (Progesterone receptor [2]): 290 nM
SMILES: CC1=CC(C)(C)Nc2ccc3c(c21)COc1c-3cc(Br)c(C=O)c1F

SMILES: CC1=CC(C)(C)Nc2ccc3c(c21)COc1ccc([N+](=O)[O-])cc1-3
- IC50 (Progesterone receptor [3]): 152 nM
- IC50 (Glucocorticoid receptor [4]): 689 nM
- IC50 (Androgen receptor): 60 nM
- Ki (Progesterone receptor [5]): 6.8 nM
- EC50 (Progesterone receptor [1]): 28.6 nM
- EC50 (Progesterone receptor [6]): 257 nM
- Efficacy [7]: 79%
- Efficacy [8]: inactive
- IC50 [9]: 1890 nM

- IC50 (Progesterone receptor [3]): 499 nM
- Activity [10]: inactive
- Activity [11]: inactive
- Ki (Progesterone receptor [5]): 391 nM
- EC50 (Progesterone receptor [1]): 637 nM
SMILES: Cc1cc(F)cc2c1OCc1c-2ccc2c1C(C)CC(C)(C)N2 (centres undefined)

- IC50 (Glucocorticoid receptor [12]): Not Active
- IC50 (Androgen receptor): 1250 nM
- Efficacy [13]: inactive
- Efficacy [7]: 30%
- Efficacy [8]: inactive
- IC50 [9]: 3160 nM
SMILES: CC1=CC(C)(C)Nc2ccc3c(c21)COc1ccc(F)cc1-3

- IC50 (Glucocorticoid receptor [12]): Not Active
- IC50 (Androgen receptor): 788 nM
- IC50 [14]: Not Active
- Efficacy [13]: inactive
- Efficacy [15]: inactive
- Efficacy [8]: inactive
SMILES: CC1=CC(C)(C)Nc2ccc3c(c21)COc1ccc(Cl)cc1-3

- Efficacy [16]: 59%
SMILES: CC#C[C@]1(O)CC[C@H]2[C@@H]3CCC4=CC(=O)CCC4=C3[C@@H](c3ccc(N(C)C)cc3)C[C@@]21C

- IC50 (Progesterone receptor [3]): 483 nM
- Activity [10]: inactive
- Activity [11]: inactive
- Ki (Progesterone receptor [5]): 370 nM
- EC50 (Progesterone receptor [1]): 781 nM
SMILES: CC1CC(C)(C)Nc2ccc3c(c21)COc1c-3cc(F)cc1[N+](=O)[O-] (centres undefined)
